The values below come from patent US11040963B2 (priority 2017, dated 2021).

Data set [1] concerns the target HA H5 A/Vietnam/1203/04 (Influenza A virus (A/Vietnam/1203/2004(H5N1)), UniProt Q5EP31). The data set can be described thus: biochemical. As to conditions: Competition binding (AlphaLISA), pIC50 H5 A/Vietnam/1203/04. For orientation: Bead proximity is the source of the signal in Alpha formats.
Data set [2] concerns H1N1 A/California/07/09. The data set can be described thus: microbe, parasite or virus in culture. It is filed as cell-based, influenza A virus. As to conditions: Influenza A virus, H1N1, MDCK, 96 h, read-out: Virus neutralization assay (VNA), pEC50 H1N1 A/California/07/09 (converted).
Data set [3] has as its system H5N1 A/Vietnam/1203/04. The data set can be described thus: microbe, parasite or virus in culture. It counts as cell-based, influenza A virus. As to conditions: Influenza A virus, H5N1, MDCK, 96 h, read-out: Virus neutralization assay (VNA), pEC50 H5N1 A/Vietnam/1203/04, MDCK cells, 96 h, CPE by ATPlite (converted); average of repeats. In general terms: ATP-based viability assays read luminescence as a measure of living cells.

For data set [4], the target named is HA H1 A/California/07/09 (Influenza A virus (A/California/07/2009(H1N1)), UniProt C3W5X2). The data set can be described thus: biochemical. As to conditions: Competition binding (AlphaLISA), pIC50 H1 A/California/07/09.
Data set [5] addresses HA H1 A/New Caledonia/20/99 (Influenza A virus (A/New Caledonia/20/1999(H1N1)), UniProt Q6WG00). The data set can be described thus: biochemical. As to conditions: Competition binding (AlphaLISA), pIC50 H1 A/New Caledonia/20/99.
Data set [6] in a line: in vitro. As to conditions: dog, Cytotoxicity (pCC50) MDCK.
Data set [7] deals with H1N1 A/New Caledonia/20/99. The data set can be described thus: microbe, parasite or virus in culture. It counts as cell-based, influenza A virus. As to conditions: Influenza A virus, H1N1, MDCK, 96 h, read-out: Virus neutralization assay (VNA), pEC50 H1N1 A/New Caledonia/20/99 (converted).

The term IC50 denotes the concentration needed to halve the response being measured. Low values mean greater potency in that assay, high ones weaker potency in that assay. As usually defined, the CC50 is the concentration at which the toxic effect on the cells reaches its halfway point. Read a high CC50 as lower toxicity to the cells. Consider `COCCNC(=O)C(c1ccccc1)N1CCN(C(=O)c2cccc(-c3nc4ccc(OC)cc4s3)c2)CC1` (centres unmarked) [Example 97], for which the IC50 in data set [1] was 631 nM; in data set [4], 100 nM; in data set [5], 79.4 nM. In addition, the EC50 in data set [2] is 1000 nM; in data set [3], 3980 nM; in data set [7], 1000 nM. Also, the CC50 in data set [6] was 10000 nM.
For the compound `COc1ccc2nc(-c3cccc(C(=O)N4CCN(C(c5ccccc5)c5noc(C)n5)CC4)c3)sc2c1` (centres unmarked) [Example 98], the IC50 in data set [1] was 2510 nM; in data set [4], 251 nM; in data set [5] it was 126 nM. Besides, the EC50 is 1260 nM in data set [2], 12600 nM in data set [3] and 1000 nM in data set [7]. The cytotoxic concentration (CC50) in data set [6] was 12600 nM.
Regarding `COCC(c1ccccc1)N1CCN(C(=O)c2cccc(-c3nc4ccc(OC)cc4s3)c2)CC1` (centres unmarked) [Example 99], the IC50 in data set [1] is 1260 nM; in data set [4] it was 251 nM; in data set [5] it was 158 nM. The EC50 is 1580 nM in data set [2], > 50100 nM in data set [3] and 1000 nM in data set [7]. In data set [6], the CC50 is > 50100 nM.
Regarding `COC(=O)[C@H](c1ccccc1)N1CCN(C(=O)c2cccc(-c3nc4cc(OC)ccc4o3)c2)CC1` [Example 100], the concentration for half-maximal inhibition (IC50) in data set [1] was 25100 nM; in data set [4] it was 501 nM; in data set [5] it was 316 nM. Besides, the EC50 was 2000 nM in data set [2], 25100 nM in data set [3] and 1000 nM in data set [7]. Besides, the half-maximal cytotoxic concentration (CC50) in data set [6] is > 50100 nM.
With `Cc1nnc(C(c2ccccc2)N2CCN(C(=O)c3cccc(-c4nc5ccncc5o4)c3)CC2)o1` (centres unmarked) [Example 102], the half-inhibitory concentration (IC50) in data set [1] was 12600 nM; in data set [4], 200 nM; in data set [5], 251 nM. Further, the values for the EC50 in data set [2], in data set [3] and in data set [7] were 2000 nM, > 50100 nM and 1000 nM, respectively. For the same compound, the half-maximal cytotoxic concentration (CC50) in data set [6] is > 50100 nM.
For `CNC(=O)C(c1ccccc1)N1CCN(C(=O)c2cccc(-c3nc4ccc(OC)cc4s3)c2)CC1` (centres unmarked) [Example 103], the IC50 in data set [1] was 1000 nM; in data set [4] it was 200 nM; in data set [5], 126 nM. For the same compound, the values for the EC50 in data set [2], in data set [3] and in data set [7] were 2510 nM, 15800 nM and 1000 nM, respectively. In data set [6], this compound showed a CC50 of 31600 nM.
With `CCCNC(=O)C(c1ccccc1)N1CCN(C(=O)c2cccc(-c3nc4ccc(OC)cc4s3)c2)CC1` (centres unmarked) [Example 104], the IC50 in data set [1] was 2000 nM; in data set [4], 251 nM; in data set [5], 200 nM. Also, the EC50 in data set [2] was 2510 nM; in data set [3], 10000 nM; in data set [7], 1000 nM. Besides, the CC50 in data set [6] is 7940 nM.
As to `O=C(c1cccc(-c2nc3cc(C(F)(F)F)ccc3o2)c1)N1CCN(C(c2ccccc2)c2nnco2)CC1` (centres unmarked) [Example 107], the IC50 in data set [1] was 20000 nM; in data set [4], 398 nM; in data set [5], 251 nM. In addition, the EC50 in data set [2] is 3160 nM; in data set [3], > 50100 nM; in data set [7], 1000 nM. Moreover, the CC50 in data set [6] is > 50100 nM.
With `COc1ccc2nc(-c3cccc(C(=O)N4CCN(C(Cc5nnco5)c5ccccc5)CC4)c3)sc2c1` (centres unmarked) [Example 108], the figures for the half-inhibitory concentration (IC50) in data set [1], in data set [4] and in data set [5] were 25100 nM, 1580 nM and 501 nM, respectively. For the same compound, the EC50 in data set [2] is 5010 nM; in data set [3], > 50100 nM; in data set [7] it was 1000 nM. Besides, the CC50 in data set [6] is > 50100 nM.
Consider `CCc1nnc(C(c2ccccc2)N2CCN(C(=O)c3cccc(-c4nc5cc(C(F)(F)F)ccc5o4)c3)CC2)o1` (centres unmarked) [Example 109], for which the half-maximal inhibitory concentration (IC50) in data set [1] was 3980 nM; in data set [4], 79.4 nM; in data set [5], 158 nM. Moreover, the figures for the EC50 in data set [2], in data set [3] and in data set [7] were 501 nM, 25100 nM and 1260 nM, respectively. The midpoint of cytotoxicity in data set [6], the CC50, lay at 10000 nM.
For `Cc1nnc([C@@H](c2ccccc2)N2CCN(C(=O)c3cccc(-c4ccc5ccccc5n4)c3)CC2)o1` [Example 112], the IC50 in data set [1] is 6310 nM; in data set [4], 501 nM; in data set [5], 398 nM. Further, the EC50 in data set [2] is 1580 nM; in data set [3] it was > 5010 nM; in data set [7], 1260 nM. Moreover, in data set [6], the midpoint of cytotoxicity, the CC50, lay at 7940 nM.
As for `COC(=O)[C@@H](c1ccccc1)N1CCN(C(=O)c2cccc(-c3nc4cc(C(F)(F)F)ccc4o3)c2)[C@H](C(N)=O)C1` [Example 113], the values for the half-maximal inhibitory concentration (IC50) in data set [1], in data set [4] and in data set [5] were 25100 nM, 501 nM and 631 nM, respectively. Besides, the results for the EC50 in data set [2], in data set [3] and in data set [7] were 1260 nM, > 50100 nM and 1580 nM, respectively. In data set [6], the 50% cytotoxic concentration (CC50) was > 50100 nM.
With `COC(=O)C(c1ccccc1)N1CCN(C(=O)C2CCCN(c3nc4ccc(OC)cc4s3)C2)CC1` (centres unmarked) [Example 115], the results for the half-maximal inhibitory concentration (IC50) in data set [1], in data set [4] and in data set [5] were 7940 nM, 251 nM and 316 nM, respectively. The EC50 in data set [2] was 2000 nM; in data set [3] it was > 50100 nM; in data set [7], 1260 nM. In data set [6], it took 3980 nM to reach half-maximal cytotoxicity (CC50).
In the case of `Cc1nc(C(c2ccccc2)N2CCN(C(=O)c3cccc(-c4nc5cc(C(F)(F)F)ccc5o4)c3)CC2)n[nH]1` (centres unmarked) [Example 116], the concentration for half-maximal inhibition (IC50) in data set [1] is 5010 nM; in data set [4], 501 nM; in data set [5], 398 nM. The EC50 was 1580 nM in data set [2], > 50100 nM in data set [3] and 1580 nM in data set [7]. In data set [6], this compound had a CC50 of 50100 nM.
`COC(=O)[C@H](c1ccccc1)N1CCN(C(=O)c2cccc(-c3nc4cc(C(F)(F)F)ccc4o3)c2)[C@@H](C)C1` [Example 117]: the figures for the IC50 in data set [1], in data set [4] and in data set [5] were 6310 nM, 126 nM and 100 nM, respectively. The results for the EC50 in data set [2], in data set [3] and in data set [7] were 2510 nM, 31600 nM and 1260 nM, respectively. Further, the cytotoxic concentration (CC50) in data set [6] is > 50100 nM.
Regarding `CNC(=O)N(Cc1ccccc1)C1CCN(C(=O)c2cccc(-c3nc4ccc(OC)cc4s3)c2)CC1` [Example 118], the values for the IC50 in data set [1], in data set [4] and in data set [5] were 25100 nM, 251 nM and 316 nM, respectively. The figures for the EC50 in data set [2], in data set [3] and in data set [7] were 7940 nM, 31600 nM and 1260 nM, respectively. The compound also had a CC50 in data set [6] of 2000 nM.
`COC(=O)C(c1ccccc1)N1CCN(C(=O)c2ccnc(-c3nc4cc(C(F)(F)F)ccc4o3)c2)CC1` (centres unmarked) [Example 119]: the IC50 was 2000 nM in data set [1], 158 nM in data set [4] and 158 nM in data set [5]. Also, the values for the EC50 in data set [2], in data set [3] and in data set [7] were 1000 nM, 25100 nM and 1580 nM, respectively. The compound further gave a CC50 in data set [6] of 10000 nM.
Take `COC(=O)C(c1ccccc1)N1CCN(C(=O)c2cccc(-c3nc4ccc(OC)cc4[nH]3)c2)CC1` (centres unmarked) [Example 121]: the half-maximal inhibitory concentration (IC50) in data set [1] was 1580 nM; in data set [4] it was 200 nM; in data set [5], 126 nM. Also, the EC50 in data set [2] was 3160 nM; in data set [3], 39800 nM; in data set [7] it was 1580 nM. This compound also had a CC50 in data set [6] of 7940 nM.
`COC(=O)C(c1ccncc1)N1CCN(C(=O)c2cccc(-c3nc4ccc(OC)cc4s3)c2)CC1` (centres unmarked) [Example 122]: the values for the IC50 in data set [1], in data set [4] and in data set [5] were 2510 nM, 398 nM and 200 nM, respectively. Further, the EC50 in data set [2] is 3980 nM; in data set [3], 12600 nM; in data set [7] it was 1580 nM. Also, the CC50 in data set [6] was 10000 nM.
For the compound `COc1ccc2nc(-c3cccc(C(=O)N4CCN([C@@H](c5ccccc5)c5nnc(C)o5)CC4)c3)sc2c1` [Example 124], the 50% inhibitory concentration (IC50) in data set [1] was 631 nM; in data set [4] it was 63.1 nM; in data set [5] it was 79.4 nM. Moreover, the EC50 in data set [2] was 501 nM; in data set [3], 3980 nM; in data set [7], 2000 nM. Moreover, in data set [6], the cytotoxic concentration (CC50) is 15800 nM.
On to `Cc1nnc(C(c2ccccc2)N2CCN(C(=O)c3cccc(-c4nc5cc(Cl)ccc5o4)c3)CC2)o1` (centres unmarked) [Example 125], for which the 50% inhibitory concentration (IC50) is 12600 nM in data set [1], 158 nM in data set [4] and 158 nM in data set [5]. The EC50 in data set [2] is 1580 nM; in data set [3], 50100 nM; in data set [7], 2000 nM. In data set [6], this compound showed a CC50 of 25100 nM.
As for `O=C(c1cccc(-c2nc3cc(C(F)(F)F)ccc3o2)c1)N1CCN(C(c2ccccc2)c2nnc(C3CC3)o2)CC1` (centres unmarked) [Example 127], the IC50 in data set [1] is 7940 nM; in data set [4], 79.4 nM; in data set [5] it was 251 nM. Also, the EC50 is 2510 nM in data set [2], 20000 nM in data set [3] and 2000 nM in data set [7]. Also, the half-maximal cytotoxic concentration (CC50) in data set [6] was > 50100 nM.
Turning to `Cc1nnc(C(c2ccccc2)N2CCN(C(=O)c3cccc(-c4nc5cccnc5o4)c3)CC2)o1` (centres unmarked) [Example 129], the concentration for half-maximal inhibition (IC50) was 31600 nM in data set [1], 631 nM in data set [4] and 501 nM in data set [5]. For the same compound, the EC50 in data set [2] is 3980 nM; in data set [3], > 50100 nM; in data set [7] it was 2000 nM. In addition, in data set [6], the CC50 was > 50100 nM.
